Where “and” joins values, the source holds several entries; their conditions need not be identical. Equal entries are not always repeated. Numbers after ± are expanded uncertainties.
Assay: xn = mol fraction of the nth substance listed
Conditions: Gas, Buoyancy - hydrostatic balance with magnetic suspension - two sinkers

## CC(C)C [2-methylpropane] + CCC
303.15 K, 440.3 kPa, x2 = 0.503
  mass density: 9.824 ± 0.035 kg/m3
303.15 K, 440.7 kPa, x2 = 0.503
  mass density: 9.834 ± 0.035 kg/m3
303.15 K, 449.9 kPa, x2 = 0.503
  mass density: 10.061 ± 0.036 kg/m3
303.15 K, 450 kPa, x2 = 0.503
  mass density: 10.069 ± 0.036 kg/m3
303.15 K, 460 kPa, x2 = 0.503
  mass density: 10.317 ± 0.036 kg/m3
303.15 K, 460.4 kPa, x2 = 0.503
  mass density: 10.325 ± 0.036 kg/m3
303.15 K, 470.2 kPa, x2 = 0.503
  mass density: 10.57 ± 0.037 kg/m3
303.15 K, 470.5 kPa, x2 = 0.503
  mass density: 10.581 ± 0.037 kg/m3
303.15 K, 480 kPa, x2 = 0.503
  mass density: 10.823 ± 0.037 kg/m3
303.15 K, 480.3 kPa, x2 = 0.503
  mass density: 10.83 ± 0.037 kg/m3
303.15 K, 489.7 kPa, x2 = 0.503
  mass density: 11.072 ± 0.037 kg/m3
303.15 K, 490.4 kPa, x2 = 0.503
  mass density: 11.087 ± 0.037 kg/m3
303.15 K, 500.3 kPa, x2 = 0.503
  mass density: 11.344 ± 0.038 kg/m3
303.15 K, 500.4 kPa, x2 = 0.503
  mass density: 11.344 ± 0.037 kg/m3
303.15 K, 510.3 kPa, x2 = 0.503
  mass density: 11.608 ± 0.038 kg/m3
303.15 K, 510.5 kPa, x2 = 0.503
  mass density: 11.6 ± 0.037 kg/m3
303.15 K, 520.4 kPa, x2 = 0.503
  mass density: 11.861 ± 0.038 kg/m3 and 11.864 ± 0.038 kg/m3
303.15 K, 530.4 kPa, x2 = 0.503
  mass density: 12.121 ± 0.038 kg/m3
303.15 K, 530.7 kPa, x2 = 0.503
  mass density: 12.129 ± 0.038 kg/m3
303.15 K, 540.1 kPa, x2 = 0.503
  mass density: 12.37 ± 0.038 kg/m3
303.15 K, 540.2 kPa, x2 = 0.503
  mass density: 12.378 ± 0.038 kg/m3
303.15 K, 550.1 kPa, x2 = 0.503
  mass density: 12.642 ± 0.038 kg/m3
303.15 K, 550.3 kPa, x2 = 0.503
  mass density: 12.642 ± 0.038 kg/m3
303.15 K, 560.3 kPa, x2 = 0.503
  mass density: 12.914 ± 0.038 kg/m3
303.15 K, 564.6 kPa, x2 = 0.503
  mass density: 13.019 ± 0.039 kg/m3
303.15 K, 570.1 kPa, x2 = 0.503
  mass density: 13.17 ± 0.039 kg/m3
303.15 K, 570.4 kPa, x2 = 0.503
  mass density: 13.178 ± 0.039 kg/m3
303.15 K, 575.1 kPa, x2 = 0.503
  mass density: 13.306 ± 0.039 kg/m3
303.15 K, 580.1 kPa, x2 = 0.503
  mass density: 13.434 ± 0.039 kg/m3
303.15 K, 580.7 kPa, x2 = 0.503
  mass density: 13.453 ± 0.039 kg/m3
303.15 K, 584.3 kPa, x2 = 0.503
  mass density: 13.548 ± 0.039 kg/m3
303.15 K, 599.9 kPa, x2 = 0.799
  mass density: 12.55 ± 0.039 kg/m3
303.15 K, 600.1 kPa, x2 = 0.799
  mass density: 12.557 ± 0.039 kg/m3
303.15 K, 609.7 kPa, x2 = 0.799
  mass density: 12.784 ± 0.039 kg/m3
303.15 K, 610.2 kPa, x2 = 0.799
  mass density: 12.802 ± 0.039 kg/m3
303.15 K, 620.2 kPa, x2 = 0.799
  mass density: 13.04 ± 0.021 kg/m3
303.15 K, 630.2 kPa, x2 = 0.799
  mass density: 13.289 ± 0.04 kg/m3
303.15 K, 639.7 kPa, x2 = 0.799
  mass density: 13.516 ± 0.04 kg/m3
303.15 K, 649.7 kPa, x2 = 0.799
  mass density: 13.757 ± 0.04 kg/m3
303.15 K, 659.8 kPa, x2 = 0.799
  mass density: 14.006 ± 0.04 kg/m3
303.15 K, 680.1 kPa, x2 = 0.799
  mass density: 14.516 ± 0.041 kg/m3
303.15 K, 700 kPa, x2 = 0.799
  mass density: 15.01 ± 0.041 kg/m3
303.15 K, 720 kPa, x2 = 0.799
  mass density: 15.515 ± 0.041 kg/m3
303.15 K, 739.9 kPa, x2 = 0.799
  mass density: 16.028 ± 0.041 kg/m3
303.15 K, 760.5 kPa, x2 = 0.799
  mass density: 16.557 ± 0.041 kg/m3
303.15 K, 770.4 kPa, x2 = 0.799
  mass density: 16.821 ± 0.041 kg/m3
303.15 K, 779.5 kPa, x2 = 0.799
  mass density: 17.055 ± 0.041 kg/m3
303.15 K, 780.1 kPa, x2 = 0.799
  mass density: 17.073 ± 0.024 kg/m3
303.15 K, 789.8 kPa, x2 = 0.799
  mass density: 17.319 ± 0.041 kg/m3
303.15 K, 790.1 kPa, x2 = 0.799
  mass density: 17.342 ± 0.041 kg/m3
303.15 K, 799.6 kPa, x2 = 0.799
  mass density: 17.59 ± 0.041 kg/m3
323.15 K, 590.1 kPa, x2 = 0.244
  mass density: 13.582 ± 0.042 kg/m3
323.15 K, 600.1 kPa, x2 = 0.244
  mass density: 13.847 ± 0.043 kg/m3
323.15 K, 600.6 kPa, x2 = 0.249
  mass density: 13.833 ± 0.042 kg/m3
323.15 K, 600.7 kPa, x2 = 0.249
  mass density: 13.848 ± 0.042 kg/m3
323.15 K, 609.5 kPa, x2 = 0.244
  mass density: 14.1 ± 0.043 kg/m3
323.15 K, 610.4 kPa, x2 = 0.249
  mass density: 14.09 ± 0.042 kg/m3
323.15 K, 620.1 kPa, x2 = 0.249
  mass density: 14.354 ± 0.044 kg/m3
323.15 K, 620.5 kPa, x2 = 0.244
  mass density: 14.391 ± 0.043 kg/m3
323.15 K, 620.7 kPa, x2 = 0.249
  mass density: 14.369 ± 0.044 kg/m3
323.15 K, 629.7 kPa, x2 = 0.244
  mass density: 14.643 ± 0.044 kg/m3
323.15 K, 630.3 kPa, x2 = 0.249
  mass density: 14.633 ± 0.043 kg/m3
323.15 K, 630.5 kPa, x2 = 0.244
  mass density: 14.658 ± 0.043 kg/m3
323.15 K, 630.5 kPa, x2 = 0.249
  mass density: 14.64 ± 0.043 kg/m3
323.15 K, 640.1 kPa, x2 = 0.249
  mass density: 14.889 ± 0.044 kg/m3
323.15 K, 640.7 kPa, x2 = 0.244
  mass density: 14.937 ± 0.044 kg/m3
323.15 K, 640.9 kPa, x2 = 0.249
  mass density: 14.923 ± 0.044 kg/m3
323.15 K, 650.1 kPa, x2 = 0.249
  mass density: 15.168 ± 0.044 kg/m3
323.15 K, 650.3 kPa, x2 = 0.244
  mass density: 15.201 ± 0.044 kg/m3
323.15 K, 651.3 kPa, x2 = 0.244
  mass density: 15.223 ± 0.044 kg/m3
323.15 K, 660 kPa, x2 = 0.249
  mass density: 15.436 ± 0.044 kg/m3
323.15 K, 660.1 kPa, x2 = 0.249
  mass density: 15.447 ± 0.045 kg/m3

— the NIST ThermoML archive (doi:10.1021/je900244c)
